Results as given in patent US20240293405A1, “(1H-PYRROLO[2,3-B]PYRIDIN-1-YL)PYRIMIDIN-2-YL-AMINO-PHENYL-ACRYLAMIDE INHIBITORS OF EGFR FOR USE IN THE TREATMENT OF BRAIN TUMORS” (Dana-Farber Cancer Institute, Inc., priority 2021, published 2024).
Where “and” joins values, the source holds several entries; their conditions need not be identical. Equal entries are not always repeated. Entries after “also recorded” stand apart in the source; their conditions may differ. Where two headings read alike, the source gives them in different places.

Tests used:
Respiratory rate = format: in vivo; settings: dog, PO up to 100 mg/kg
[1] = Brain and plasma exposure after 5 hour intravenous infusion; format: in vivo, Sprague Dawley rats; settings: for Kp at 5 h / concentration at 5 h / concentration at 0.083 h / concentration at 1 h / concentration at 2 h / concentration at 3 h: 3 mg/kg
Procedure: A single IV infustion for 5 hours was administered to each animal, which were then twice observed clinically (30 minutes to 1 hour post-posing and at the end of the study (TTerminal). Blood samples were collected at 5 time points from each animal over the 5 hour infusion period (5 minutes, 1 hour, 2, hours, 3 hours and TTerminal) and processed to plasma. Brains were collected at Tterminal (blotted, weighed, and snap frozen) and brain exposure was compared. […]

EGFRvIII [2] = molecular target: T1, EGFRvIII (Homo sapiens, UniProt P00533, DELINS30-297G); assay: EGFRvIII phosphorylation in 293-EGFRvIII cells (western blot); format: cell-based; design: expressed in transfected cells; settings: 6 hours, read-out: IC50 on EGFRvIII phosphorylation (pEGFRvIII1068)
[3] = PC-9 SQ lung tumor xenograft in NOD.SCID mice; format: in vivo; settings: mouse, plasma, PC-9 model, 4 hours post-dose, oral, read-out: plasma concentration at which anti-tumor activity was noted
Procedure: Compound 1 was also evaluated in xenograft models of lung tumor cell lines harboring EGFR single and double mutations in the mouse.

[4] = test system: NCI-H1975 cells (EGFR L858R/T790M mutation); assay: Cell viability assay, NCI-H1975 (CellTiter-Glo); format: cell-based; settings: Homo sapiens; NCI-H1975, 72 hours; read-out: IC50, cell viability
Source text: CellTier-Glo (Promega) assay kit (https://www.promega.com/resources/protocols/technical-bulletins/0/celltiter-glo-luminescentcell-viability-assay-protocol/) was used here.

[5] = Cardiovascular function (telemetry); format: in vivo, dog
Procedure: This arrythmia was not associated with maximum plasma concentration (Cmax) or Tmax of either parent or metabolite. No definitive link to the test article could be identified. Given the unexplained reversible arrythmia in this high-dose (100 mg/kg) telemetry dog, routine electrocardiogram (ECG) monitoring in Phase 1 is recommended.

CYP3A4 = assay: CYP 1A2, 2B6 and 3A4 induction, human hepatocytes; format: in vitro ADME
Source text: Metabolism, inhibition and induction were not observed with other CYPs. Potential DDI interactions exist with drugs that are inhibitors of CYP3A4-T or those metabolized by CYP3A4/3A5; these DDI risks will be better defined once there are human pharmacokinetics (PK) data.

[6] = Brain and plasma exposure after single oral dose; format: in vivo, Sprague Dawley rats; settings: Compound 1 30 mg/kg PO, 30 mg/kg; for concentration at 7 h / Kp at 7 h / concentration at 3 h: Sprague Dawley, rat, po; for Kp at 7 h: read-out: Brain/Plasma (ratios)
[7] = molecular target: ALK, EGFR and FLT3 mutants (Homo sapiens, UniProt P00533); assay: Targeted kinase binding constants, mutant kinases (summary); settings: read-out: mutant kinase binding (Kd) for several EGFR single and double mutants
Procedure: (§1) Compound 1 and Compound 2 (major metabolite) were evaluated in a panel of 468 human kinases and disease relevant mutant variants. Compound 1 and Compound 2 bound to few non-mutant kinases at <1% of control. […] While there is some variability between Compound 1 and Compound 2, it is clear that both compounds are very effective at binding to a large panel of mutant kinases. […] Binding constant to wild type EGFR was 4.9 nM.

ALK = ALK (Homo sapiens, UniProt Q9UM73); assay: Kinase binding constant (Kd)
Procedure: (§2) EGFR amplifications and/or mutations are common in GBM, estimated to occur in over 50% of patients.
as §1

PDGFRB = PDGFRB (Homo sapiens, UniProt P09619); assay: Kinase binding constant (Kd)
Procedure: as §2, §1

PDGFRA = PDGFRA (Homo sapiens, UniProt P16234); assay: Kinase binding constant (Kd)
Procedure: as §2, §1

[8] = CNS functional observational battery; format: in vivo; settings: rat, PO up to 100 mg/kg
EGFRvIII [9] = molecular target: T1, EGFRvIII; assay: EGFRvIII phosphorylation in U251-EGFRvIII cells (western blot); format: cell-based; design: expressed in transfected cells; host or cells: U251 (human GBM cell line), retroviral transduction; settings: 20 hours, read-out: IC50 on EGFRvIII phosphorylation (pEGFRvIII1068)
Source text: Anti-a-Tubulin antibody was purchased from Sigma.
In parallel, the conventional human GBM U251 cell line was used as a surrogate model for both in vitro and in vivo studies. U251 cells were engineered to stably express EGFRvIII (U251-EGFRvIII) via retroviral-mediated gene transfer.

human BCRP = molecular target: T2, human BCRP (Homo sapiens, UniProt Q9UNQ0); assay: BCRP inhibition (rosuvastatin transport, Caco-2 cells); format: in vitro ADME; settings: read-out: apparent IC50, rosuvastatin transport via human BCRP (converted)
T2 construct: endogenous in cells; host or cells: Caco-2 cells
Source text: Further understanding of DDI risk will await definition of Phase 2 doses and exposures.

[10] = 3 mg/kg IV infusion over 5 h, 5 h, individual animal, Compound 2 as metabolite in Compound 1-dosed rats
[11] = Sprague Dawley, rat, brain, other: continuous intravenous infusion and oral dosing, rat, estimated steady state by continuous intravenous infusion and oral dosing, read-out: whole brain exposure relative to plasma

T1 sequence (P00533 with tags, fused parts or gaps DELINS30-297G): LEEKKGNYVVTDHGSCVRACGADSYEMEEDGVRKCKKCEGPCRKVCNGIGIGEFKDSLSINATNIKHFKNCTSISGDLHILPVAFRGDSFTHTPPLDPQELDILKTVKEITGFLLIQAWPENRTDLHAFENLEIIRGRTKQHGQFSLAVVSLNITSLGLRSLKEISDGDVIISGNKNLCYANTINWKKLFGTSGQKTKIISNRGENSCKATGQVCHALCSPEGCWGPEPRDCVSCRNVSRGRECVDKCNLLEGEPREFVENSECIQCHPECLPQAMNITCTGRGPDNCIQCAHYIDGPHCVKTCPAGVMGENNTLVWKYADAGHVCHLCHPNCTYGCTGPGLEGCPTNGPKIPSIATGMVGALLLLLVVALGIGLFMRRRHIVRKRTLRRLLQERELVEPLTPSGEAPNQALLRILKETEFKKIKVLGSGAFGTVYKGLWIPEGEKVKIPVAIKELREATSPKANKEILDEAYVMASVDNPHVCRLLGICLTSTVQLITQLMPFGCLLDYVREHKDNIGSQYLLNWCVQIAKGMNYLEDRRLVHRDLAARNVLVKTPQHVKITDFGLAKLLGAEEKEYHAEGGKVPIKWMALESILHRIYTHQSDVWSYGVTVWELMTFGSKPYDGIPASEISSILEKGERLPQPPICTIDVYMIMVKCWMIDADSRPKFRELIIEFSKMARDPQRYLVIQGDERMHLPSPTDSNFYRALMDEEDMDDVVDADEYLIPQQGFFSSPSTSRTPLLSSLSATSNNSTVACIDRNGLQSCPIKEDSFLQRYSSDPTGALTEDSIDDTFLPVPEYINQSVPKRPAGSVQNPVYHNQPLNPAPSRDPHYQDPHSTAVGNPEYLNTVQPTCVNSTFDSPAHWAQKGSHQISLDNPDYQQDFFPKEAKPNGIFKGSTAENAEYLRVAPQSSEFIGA
T2 sequence (Q9UNQ0 whole entry): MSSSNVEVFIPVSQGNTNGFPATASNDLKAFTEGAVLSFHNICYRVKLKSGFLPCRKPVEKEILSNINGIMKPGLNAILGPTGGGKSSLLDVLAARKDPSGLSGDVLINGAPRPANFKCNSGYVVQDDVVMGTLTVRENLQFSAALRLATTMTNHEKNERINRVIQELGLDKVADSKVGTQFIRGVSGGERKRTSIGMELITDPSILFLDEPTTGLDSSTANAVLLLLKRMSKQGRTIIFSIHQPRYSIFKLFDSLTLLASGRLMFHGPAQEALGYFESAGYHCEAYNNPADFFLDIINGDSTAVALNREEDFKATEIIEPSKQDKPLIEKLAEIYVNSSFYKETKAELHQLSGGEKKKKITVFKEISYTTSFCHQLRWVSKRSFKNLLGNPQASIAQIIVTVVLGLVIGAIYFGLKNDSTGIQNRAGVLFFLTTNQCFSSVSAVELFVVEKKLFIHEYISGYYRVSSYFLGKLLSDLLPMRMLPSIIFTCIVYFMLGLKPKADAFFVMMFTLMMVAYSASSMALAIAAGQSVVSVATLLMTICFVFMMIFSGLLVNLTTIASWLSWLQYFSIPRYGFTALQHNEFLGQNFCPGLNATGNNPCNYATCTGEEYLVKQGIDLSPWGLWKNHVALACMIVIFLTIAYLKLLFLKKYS
PDGFRB, sequence (P09619 33-1106): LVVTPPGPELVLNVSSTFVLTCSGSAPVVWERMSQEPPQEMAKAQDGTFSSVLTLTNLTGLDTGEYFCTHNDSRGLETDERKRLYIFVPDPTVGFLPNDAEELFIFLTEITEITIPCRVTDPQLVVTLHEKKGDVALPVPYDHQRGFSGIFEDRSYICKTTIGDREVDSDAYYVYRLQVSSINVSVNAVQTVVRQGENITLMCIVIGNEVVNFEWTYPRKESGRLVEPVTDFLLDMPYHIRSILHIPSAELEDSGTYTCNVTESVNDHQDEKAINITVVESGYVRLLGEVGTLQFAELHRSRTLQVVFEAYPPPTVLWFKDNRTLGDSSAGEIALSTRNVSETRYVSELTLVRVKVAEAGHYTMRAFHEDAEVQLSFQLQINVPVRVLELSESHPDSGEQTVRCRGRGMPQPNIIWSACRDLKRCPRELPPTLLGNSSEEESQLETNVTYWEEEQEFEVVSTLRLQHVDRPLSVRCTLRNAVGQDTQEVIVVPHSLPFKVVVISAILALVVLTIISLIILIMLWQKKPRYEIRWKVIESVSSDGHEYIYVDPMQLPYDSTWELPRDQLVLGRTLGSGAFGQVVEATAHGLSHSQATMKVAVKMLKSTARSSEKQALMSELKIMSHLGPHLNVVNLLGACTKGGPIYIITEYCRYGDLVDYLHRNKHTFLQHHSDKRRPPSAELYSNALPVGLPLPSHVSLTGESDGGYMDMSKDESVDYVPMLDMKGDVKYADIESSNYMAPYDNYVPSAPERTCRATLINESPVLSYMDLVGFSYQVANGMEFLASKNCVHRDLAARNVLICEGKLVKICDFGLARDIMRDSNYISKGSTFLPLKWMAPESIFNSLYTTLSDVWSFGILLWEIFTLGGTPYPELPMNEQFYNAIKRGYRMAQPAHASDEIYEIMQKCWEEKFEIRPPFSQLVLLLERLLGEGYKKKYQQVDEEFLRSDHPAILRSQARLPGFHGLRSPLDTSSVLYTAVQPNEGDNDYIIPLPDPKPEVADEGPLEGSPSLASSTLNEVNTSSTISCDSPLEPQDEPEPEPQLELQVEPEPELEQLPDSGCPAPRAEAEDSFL
ALK, sequence (Q9UM73 19-1620): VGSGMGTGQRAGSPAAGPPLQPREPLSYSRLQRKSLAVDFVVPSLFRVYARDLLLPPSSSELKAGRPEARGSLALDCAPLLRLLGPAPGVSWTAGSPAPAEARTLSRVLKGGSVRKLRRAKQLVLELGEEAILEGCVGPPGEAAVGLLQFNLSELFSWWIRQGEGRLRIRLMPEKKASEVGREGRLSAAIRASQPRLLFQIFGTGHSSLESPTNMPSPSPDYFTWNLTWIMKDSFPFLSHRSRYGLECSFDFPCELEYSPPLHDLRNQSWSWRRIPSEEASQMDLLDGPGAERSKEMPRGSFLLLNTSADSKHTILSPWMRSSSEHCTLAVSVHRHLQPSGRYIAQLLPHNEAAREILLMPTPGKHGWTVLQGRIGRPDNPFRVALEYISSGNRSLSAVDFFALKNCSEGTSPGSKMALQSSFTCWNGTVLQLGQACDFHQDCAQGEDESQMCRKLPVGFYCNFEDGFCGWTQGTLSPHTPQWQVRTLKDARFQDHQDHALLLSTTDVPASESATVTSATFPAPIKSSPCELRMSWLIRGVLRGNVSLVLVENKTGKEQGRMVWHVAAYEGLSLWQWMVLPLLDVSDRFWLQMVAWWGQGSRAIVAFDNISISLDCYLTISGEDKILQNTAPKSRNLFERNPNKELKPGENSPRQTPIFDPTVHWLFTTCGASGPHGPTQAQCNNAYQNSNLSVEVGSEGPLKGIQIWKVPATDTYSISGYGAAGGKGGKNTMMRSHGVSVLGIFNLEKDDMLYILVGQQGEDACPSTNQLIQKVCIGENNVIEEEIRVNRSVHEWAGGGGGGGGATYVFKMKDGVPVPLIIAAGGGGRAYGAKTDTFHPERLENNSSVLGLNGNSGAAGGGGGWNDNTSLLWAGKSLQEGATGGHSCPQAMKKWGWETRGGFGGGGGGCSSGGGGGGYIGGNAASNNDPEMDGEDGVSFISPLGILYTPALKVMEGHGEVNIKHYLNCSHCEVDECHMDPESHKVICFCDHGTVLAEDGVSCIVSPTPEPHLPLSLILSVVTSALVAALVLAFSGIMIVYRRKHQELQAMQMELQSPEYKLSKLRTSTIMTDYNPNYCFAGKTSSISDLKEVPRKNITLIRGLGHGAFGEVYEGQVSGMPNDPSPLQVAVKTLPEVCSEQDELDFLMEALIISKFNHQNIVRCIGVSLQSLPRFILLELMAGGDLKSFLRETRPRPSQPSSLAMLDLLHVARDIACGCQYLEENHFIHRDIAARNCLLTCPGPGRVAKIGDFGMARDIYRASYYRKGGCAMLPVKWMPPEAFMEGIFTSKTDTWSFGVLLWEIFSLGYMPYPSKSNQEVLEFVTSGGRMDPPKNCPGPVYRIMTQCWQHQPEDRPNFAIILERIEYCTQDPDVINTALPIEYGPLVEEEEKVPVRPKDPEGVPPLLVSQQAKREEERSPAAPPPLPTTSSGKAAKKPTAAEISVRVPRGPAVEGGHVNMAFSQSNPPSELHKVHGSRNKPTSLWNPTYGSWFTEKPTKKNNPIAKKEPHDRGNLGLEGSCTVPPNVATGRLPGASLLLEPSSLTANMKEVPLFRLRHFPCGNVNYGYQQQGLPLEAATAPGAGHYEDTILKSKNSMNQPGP

Structure (SMILES): C=CC(=O)Nc1cc(Nc2nccc(-n3ccc4cccnc43)n2)c(OC)cc1N(C)CCN(C)C [Compound 1, N-(5-((4-(1H-pyrrolo[2,3-b]pyridin-1-yl)pyrimidin-2-yl)amino)-2-((2-(dimethylamino)ethyl)(methyl)amino)-4-methoxyphenyl)acrylamide]
- effects on respiratory rate (Respiratory rate): no adverse effects on respiratory rate
- Plasma Concentration ([1]; 3 mg/kg IV infusion over 5 h, 0.083 h, individual animal, Compound 2 as metabolite in Compound 1-dosed rats): 14.2 ng/mL and 13.5 ng/mL and 12.8 ng/mL and 13.1 ng/mL and 11.3 ng/mL and 14.3 ng/mL
- Plasma Concentration ([1]; 3 mg/kg IV infusion over 5 h, 1 h, individual animal, Compound 2 as metabolite in Compound 1-dosed rats): 63.5 ng/mL and 54.8 ng/mL and 59.6 ng/mL and 44.2 ng/mL and 51.1 ng/mL and 63.0 ng/mL
- Plasma Concentration ([1]; 3 mg/kg IV infusion over 5 h, 2 h, individual animal, Compound 2 as metabolite in Compound 1-dosed rats): 93.4 ng/mL and 84.2 ng/mL and 81.6 ng/mL and 70.7 ng/mL and 71.9 ng/mL and 70.1 ng/mL
- Plasma Concentration ([1]; 3 mg/kg IV infusion over 5 h, 3 h, individual animal, Compound 2 as metabolite in Compound 1-dosed rats): 95.5 ng/mL and 93.7 ng/mL and 106 ng/mL and 89.5 ng/mL and 94.7 ng/mL and 120 ng/mL
- Brain Tissue Concentration [1, 10]: 2380 ng/g and 2400 ng/g and 2020 ng/g and 2000 ng/g and 1980 ng/g and 2640 ng/g
- Brain/Plasma (ratios) [1, 10]: 18.5 and 20.5 and 18.2
- Plasma Concentration [1, 10]: 107 ng/mL and 120 ng/mL and 109 ng/mL and 97.4 ng/mL and 119 ng/mL
- Kp at 5 h [1, 11]: > 20
- Kp [1, 11]: 20
- concentration at 5 h ([1]; male, Sprague Dawley, rat, brain, intravenous, 3 mg/kg IV infusion over 5 h, 5 h, individual animal, Compound 2 as metabolite in Compound 1-dosed rats, read-out: Brain Tissue Concentration): 2640 ng/g
- concentration at 5 h ([1]; male, Sprague Dawley, rat, brain, intravenous, 3 mg/kg IV infusion over 5 h, 5 h, mean n=6, Compound 2 as metabolite, read-out: Brain Tissue Concentration): 2240 ng/g
- Kp at 5 h ([1]; male, Sprague Dawley, rat, brain, intravenous, rats with continuous infusion, read-out: brain/plasma ratio): ~20
- Kp at 5 h ([1]; male, Sprague Dawley, rat, brain, iv, 3 mg/kg IV infusion over 5 h, 5 h, individual animal, Compound 2 as metabolite in Compound 1-dosed rats, read-out: Brain/Plasma (ratios)): 22.2
- Kp at 5 h ([1]; male, Sprague Dawley, rat, brain, iv, 3 mg/kg IV infusion over 5 h, 5 h, mean n=6, Compound 2 as metabolite, read-out: Brain/Plasma (ratios)): 20.3
- concentration at 0.083 h ([1]; male, Sprague Dawley, rat, plasma, intravenous, 3 mg/kg IV infusion over 5 h, 0.083 h, individual animal, Compound 2 as metabolite in Compound 1-dosed rats): 14.3 ng/mL
- concentration at 0.083 h ([1]; male, Sprague Dawley, rat, plasma, intravenous, 3 mg/kg IV infusion over 5 h, 0.083 h, mean n=6, Compound 2 as metabolite): 13.2 ng/mL
- concentration at 1 h ([1]; male, Sprague Dawley, rat, plasma, intravenous, 3 mg/kg IV infusion over 5 h, 1 h, individual animal, Compound 2 as metabolite in Compound 1-dosed rats): 63 ng/mL
- concentration at 1 h ([1]; male, Sprague Dawley, rat, plasma, intravenous, 3 mg/kg IV infusion over 5 h, 1 h, mean n=6, Compound 2 as metabolite): 56 ng/mL
- concentration at 2 h ([1]; male, Sprague Dawley, rat, plasma, intravenous, 3 mg/kg IV infusion over 5 h, 2 h, individual animal, Compound 2 as metabolite in Compound 1-dosed rats): 70.1 ng/mL
- concentration at 2 h ([1]; male, Sprague Dawley, rat, plasma, intravenous, 3 mg/kg IV infusion over 5 h, 2 h, mean n=6, Compound 2 as metabolite): 78.7 ng/mL
- concentration at 3 h ([1]; male, Sprague Dawley, rat, plasma, intravenous, 3 mg/kg IV infusion over 5 h, 3 h, individual animal, Compound 2 as metabolite in Compound 1-dosed rats): 120 ng/mL
- concentration at 3 h ([1]; male, Sprague Dawley, rat, plasma, intravenous, 3 mg/kg IV infusion over 5 h, 3 h, mean n=6, Compound 2 as metabolite): 99.9 ng/mL
- concentration at 5 h ([1]; male, Sprague Dawley, rat, plasma, intravenous, 3 mg/kg IV infusion over 5 h, 5 h, individual animal, Compound 2 as metabolite in Compound 1-dosed rats, read-out: Plasma Concentration): 119 ng/mL
- concentration at 5 h ([1]; male, Sprague Dawley, rat, plasma, intravenous, 3 mg/kg IV infusion over 5 h, 5 h, mean n=6, Compound 2 as metabolite, read-out: Plasma Concentration): 110 ng/mL
- Brain Penetration (% of B/P ratio in preclinical model) ([1]; own data, infusion in rats): 2000% (infusion)
- IC50 (EGFRvIII [2]): 190 nM
- concentration at 4 h [3]: 1500 ng/mL and 3.1 µM
- IC50 [4]: 34.4 nM
- dogs with reversible ventricular conduction disturbance ([5]; 100 mg/kg, 10 to 24 hours after dose): 1 of 4
- QTc, blood pressure and cardiac intervals ([5]; doses up to 100 mg/kg): no QTc signals; also recorded: no adverse effects on blood pressure or cardiac intervals
- Cmax ([5]; plasma, dog, 100 mg/kg Compound 1 PO, M38 as metabolite, read-out: estimated single-dose Cmax): 2620 ng/mL and 5.4 µM
- CYP induction based on enzyme activity (CYP3A4): no CYP induction
- Plasma Concentration ([6]; 3 hr, individual animal): 181 ng/mL and 229 ng/mL and 273 ng/mL
- Brain Tissue Concentration ([6]; 7 hr, individual animal): 8280 ng/g and 5210 ng/g and 7400 ng/g
- Brain/Plasma (ratios) ([6]; 7 hr, individual animal): 31.2 and 26.4
- Plasma Concentration ([6]; 7 hr, individual animal): 265 ng/mL and 197 ng/mL and 275 ng/mL
- concentration at 7 h ([6]; brain, 7 hr, individual animal, read-out: Brain Tissue Concentration): 7400 ng/g
- Kp at 7 h ([6]; brain, 7 hr, individual animal): 26.9
- concentration at 7 h ([6]; brain, 7 hr, mean n=3, read-out: Brain Tissue Concentration): 6960 ng/g
- Kp at 7 h ([6]; brain, 7 hr, mean n=3): 28.3
- concentration at 3 h ([6]; plasma, 3 hr, individual animal): 273 ng/mL
- concentration at 3 h ([6]; plasma, 3 hr, mean n=3): 228 ng/mL
- concentration at 7 h ([6]; plasma, 7 hr, individual animal, read-out: Plasma Concentration): 275 ng/mL
- concentration at 7 h ([6]; plasma, 7 hr, mean n=3, read-out: Plasma Concentration): 246 ng/mL
- Kd [7]: < 1 nM
- Kd (ALK): 250 nM
- Kd (PDGFRB): 5200 nM
- Kd (PDGFRA): 1500 nM
- CNS effects in functional observational battery [8]: no adverse CNS effects
- IC50 (EGFRvIII [9]): 174 nM and 170 nM
- IC50 (human BCRP): 3020 nM
